The source of these data is patent publication US9399637B2, “Substituted heteroaryl compounds and methods of use” (Calitor Sciences, LLC, priority 2014, dated 2016).

By IC50 is commonly meant the midpoint of a concentration-inhibition curve. A low value points to greater potency in that assay.

The target in one assay is T1, JAK3 (h) (Homo sapiens, UniProt P52333).
T1 construct: purchased Millipore UK Ltd (assays run there as a service)
T1 sequence (P52333 1-1124): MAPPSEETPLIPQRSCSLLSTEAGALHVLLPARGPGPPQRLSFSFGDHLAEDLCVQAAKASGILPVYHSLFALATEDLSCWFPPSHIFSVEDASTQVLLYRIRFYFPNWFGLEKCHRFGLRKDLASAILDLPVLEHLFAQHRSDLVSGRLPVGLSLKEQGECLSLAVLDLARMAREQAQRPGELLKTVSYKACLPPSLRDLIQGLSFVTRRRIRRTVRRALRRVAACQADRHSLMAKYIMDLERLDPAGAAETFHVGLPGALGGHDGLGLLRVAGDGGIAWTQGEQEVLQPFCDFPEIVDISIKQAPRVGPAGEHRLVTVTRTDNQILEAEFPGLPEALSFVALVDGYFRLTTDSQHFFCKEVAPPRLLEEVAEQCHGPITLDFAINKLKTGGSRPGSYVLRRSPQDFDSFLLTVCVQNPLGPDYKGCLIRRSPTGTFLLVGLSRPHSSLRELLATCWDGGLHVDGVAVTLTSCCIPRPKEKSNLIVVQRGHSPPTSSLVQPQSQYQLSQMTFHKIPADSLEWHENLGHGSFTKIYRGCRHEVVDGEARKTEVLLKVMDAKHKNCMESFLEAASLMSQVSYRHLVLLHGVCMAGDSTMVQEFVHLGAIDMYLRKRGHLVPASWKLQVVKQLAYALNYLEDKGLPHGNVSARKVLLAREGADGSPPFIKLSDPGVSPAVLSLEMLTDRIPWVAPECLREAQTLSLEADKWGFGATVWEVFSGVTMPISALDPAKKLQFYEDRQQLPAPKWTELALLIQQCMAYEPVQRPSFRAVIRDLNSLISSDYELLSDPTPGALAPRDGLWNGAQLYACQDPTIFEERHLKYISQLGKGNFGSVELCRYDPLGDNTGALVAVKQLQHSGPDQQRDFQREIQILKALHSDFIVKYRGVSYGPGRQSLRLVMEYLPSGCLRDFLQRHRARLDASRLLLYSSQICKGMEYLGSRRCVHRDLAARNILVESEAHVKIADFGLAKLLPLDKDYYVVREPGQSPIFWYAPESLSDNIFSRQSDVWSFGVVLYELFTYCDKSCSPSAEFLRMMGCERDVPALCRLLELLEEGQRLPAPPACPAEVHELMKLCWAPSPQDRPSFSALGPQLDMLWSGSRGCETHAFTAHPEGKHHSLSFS
Nature of the assay: JAK3 kinase assay. Type of assay: biochemical. The protocol:
(§1) Kinase assays can be performed by measurement of incorporation of γ-^33P ATP into immobilized myelin basic protein (MBP). High binding white 384 well plates (Greiner) are coated with MBP (Sigma #M-1891) by incubation of 60 μL/well of 20 μg/mL MBP in Tris-buffered saline (TBS; 50 mM Tris pH 8.0, 138 mM NaCl, 2.7 mM KCl) for 24 h at 4° C. Plates are washed 3× with 100 μL TBS. Kinase reactions are carried out in a total volume of 34 μL in kinase buffer (5 mM Hepes pH 7.6, 15 mM NaCl, 0.01% bovine gamma globulin (Sigma #I-5506), 10 mM MgCl2, 1 mM DTT, 0.02% TritonX-100). Compound dilutions are performed in DMSO and added to assay wells to a final DMSO concentration of 1%. Each data point is measured in duplicate, and at least two duplicate assays are performed for each individual compound determination. Enzyme is added to final concentrations of 10 nM or 20 nM, for example. A mixture of unlabeled ATP and γ-^33P ATP is added to start the reaction (2×10^6 cpm of γ-^33P ATP per well (3000 Ci/mmole) and 10 μM unlabeled ATP, typically. The reactions are carried out for 1 h at room temperature with shaking Plates are washed 7× with TBS, followed by the addition of 50 μL/well scintillation fluid (Wallac). Plates are read using a Wallac Trilux counter. This is only one format of such assays; various other formats are possible, as known to one skilled in the art. […]

Another assay deals with T2, FLT3 (h) (Homo sapiens, UniProt P36888).
T2 construct: purchased Millipore UK Ltd (assays run there as a service)
T2 sequence (P36888 27-993): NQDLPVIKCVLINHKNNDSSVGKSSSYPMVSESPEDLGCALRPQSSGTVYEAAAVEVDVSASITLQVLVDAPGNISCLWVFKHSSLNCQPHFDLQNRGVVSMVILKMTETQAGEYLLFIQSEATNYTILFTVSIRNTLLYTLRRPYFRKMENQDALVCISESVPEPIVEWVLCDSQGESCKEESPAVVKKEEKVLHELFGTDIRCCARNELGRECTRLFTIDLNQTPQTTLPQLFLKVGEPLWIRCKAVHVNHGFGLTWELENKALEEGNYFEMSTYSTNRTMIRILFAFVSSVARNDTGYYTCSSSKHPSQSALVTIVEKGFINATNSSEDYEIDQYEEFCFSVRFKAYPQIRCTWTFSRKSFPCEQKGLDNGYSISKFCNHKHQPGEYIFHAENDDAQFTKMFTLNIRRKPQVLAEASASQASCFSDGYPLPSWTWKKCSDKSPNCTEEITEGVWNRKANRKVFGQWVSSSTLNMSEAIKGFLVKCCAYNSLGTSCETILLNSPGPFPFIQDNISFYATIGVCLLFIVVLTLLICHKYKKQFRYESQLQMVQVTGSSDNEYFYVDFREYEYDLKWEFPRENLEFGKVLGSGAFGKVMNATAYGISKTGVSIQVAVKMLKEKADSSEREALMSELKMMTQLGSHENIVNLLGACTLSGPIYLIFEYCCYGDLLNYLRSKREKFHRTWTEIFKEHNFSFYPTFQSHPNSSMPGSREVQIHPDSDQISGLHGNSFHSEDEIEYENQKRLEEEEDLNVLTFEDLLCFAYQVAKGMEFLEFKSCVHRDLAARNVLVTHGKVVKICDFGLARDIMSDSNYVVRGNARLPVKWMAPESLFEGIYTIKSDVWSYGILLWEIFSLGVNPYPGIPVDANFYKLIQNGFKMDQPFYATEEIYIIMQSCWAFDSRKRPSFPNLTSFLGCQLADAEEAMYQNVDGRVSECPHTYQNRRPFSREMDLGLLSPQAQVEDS
The experiment in a line: FLT3 kinase assay. Type of assay: biochemical. The protocol: as §1

Consider `Cc1c2ccc(Nc3ncc(Cl)c(NC4CC5CN(C(=O)CC#N)CC5C4)n3)cc2nn1C` (stereo not shown) [Ex. 4, 3-(5-((5-chloro-2-((2,3-dimethyl-2H-indazol-6-yl)amino)pyrimidin-4-yl)amino)hexahydrocyclopenta[c]pyrrol-2(1H)-yl)-3-oxopropanenitrile], for which the IC50 against JAK3 (h) was 535 nM; against FLT3 (h), 545 nM.

As for `CC(=O)N1CCC2(CCC(Nc3nc(Nc4ccc5c(C)n(C)nc5c4)ncc3Cl)CC2)CC1` [Ex. 7, 1-(9-((5-chloro-2-((2,3-dimethyl-2H-indazol-6-yl)amino)pyrimidin-4-yl)amino)-3-azaspiro[5.5]undecan-3-yl)ethanone], the IC50 was determined as 142 nM against JAK3 (h) and 3 nM against FLT3 (h).
